Results on one compound are retold here after ChEMBL document CHEMBL5252585, “Structure optimization and discovery of novel compound for the treatment of insertion mutations within exon 20 of EGFR and HER2” (Bioorg Med Chem, 2023).

In series [1] the test system is BaF3. In words: Antitumor activity against mouse BaF3 cells implanted in BALB/c mouse harboring EGFR D770-N771 ins NPG mutant assessed as tumor growth inhibition at 20 mg/kg, po administered once daily for 13 to 14 days. In kind it is functional. The note with it: time 13-14 day, read-out: TGI.
Series [2] concerns the target T1, Ephrin type-A receptor 3 (Homo sapiens) (UniProt P29320).
T1 sequence (whole entry): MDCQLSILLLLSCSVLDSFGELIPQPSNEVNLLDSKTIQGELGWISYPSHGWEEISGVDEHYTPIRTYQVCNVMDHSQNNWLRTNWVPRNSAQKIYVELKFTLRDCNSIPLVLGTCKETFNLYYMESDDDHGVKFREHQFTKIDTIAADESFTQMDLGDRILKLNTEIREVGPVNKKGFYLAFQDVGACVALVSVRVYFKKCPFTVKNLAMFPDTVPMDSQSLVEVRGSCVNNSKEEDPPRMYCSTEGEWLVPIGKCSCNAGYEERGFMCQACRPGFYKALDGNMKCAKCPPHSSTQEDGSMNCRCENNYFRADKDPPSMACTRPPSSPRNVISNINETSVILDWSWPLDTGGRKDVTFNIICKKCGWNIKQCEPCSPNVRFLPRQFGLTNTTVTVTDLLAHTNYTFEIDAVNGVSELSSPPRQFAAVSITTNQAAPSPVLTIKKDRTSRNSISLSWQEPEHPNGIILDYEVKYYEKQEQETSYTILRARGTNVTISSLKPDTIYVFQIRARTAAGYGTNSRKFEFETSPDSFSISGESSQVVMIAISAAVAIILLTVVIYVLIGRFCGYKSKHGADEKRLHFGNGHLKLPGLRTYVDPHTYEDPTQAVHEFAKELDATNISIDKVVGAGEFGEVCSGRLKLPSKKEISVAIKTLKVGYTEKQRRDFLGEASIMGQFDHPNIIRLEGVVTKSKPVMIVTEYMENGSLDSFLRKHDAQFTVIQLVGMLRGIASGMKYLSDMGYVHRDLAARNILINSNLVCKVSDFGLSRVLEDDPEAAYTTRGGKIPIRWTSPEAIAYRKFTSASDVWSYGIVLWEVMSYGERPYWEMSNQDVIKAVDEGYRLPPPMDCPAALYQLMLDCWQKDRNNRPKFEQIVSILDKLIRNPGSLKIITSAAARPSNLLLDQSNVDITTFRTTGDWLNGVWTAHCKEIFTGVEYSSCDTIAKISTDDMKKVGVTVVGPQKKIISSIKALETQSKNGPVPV
In words: Inhibition of EPHA3 (unknown origin) at 500 nM relative to control.

Series [3] deals with Receptor tyrosine-protein kinase erbB-4 (Homo sapiens) (UniProt Q15303). Conditions: dose 500.0 nM.
Sequence of Receptor tyrosine-protein kinase erbB-4 (Homo sapiens) (Q15303 whole entry): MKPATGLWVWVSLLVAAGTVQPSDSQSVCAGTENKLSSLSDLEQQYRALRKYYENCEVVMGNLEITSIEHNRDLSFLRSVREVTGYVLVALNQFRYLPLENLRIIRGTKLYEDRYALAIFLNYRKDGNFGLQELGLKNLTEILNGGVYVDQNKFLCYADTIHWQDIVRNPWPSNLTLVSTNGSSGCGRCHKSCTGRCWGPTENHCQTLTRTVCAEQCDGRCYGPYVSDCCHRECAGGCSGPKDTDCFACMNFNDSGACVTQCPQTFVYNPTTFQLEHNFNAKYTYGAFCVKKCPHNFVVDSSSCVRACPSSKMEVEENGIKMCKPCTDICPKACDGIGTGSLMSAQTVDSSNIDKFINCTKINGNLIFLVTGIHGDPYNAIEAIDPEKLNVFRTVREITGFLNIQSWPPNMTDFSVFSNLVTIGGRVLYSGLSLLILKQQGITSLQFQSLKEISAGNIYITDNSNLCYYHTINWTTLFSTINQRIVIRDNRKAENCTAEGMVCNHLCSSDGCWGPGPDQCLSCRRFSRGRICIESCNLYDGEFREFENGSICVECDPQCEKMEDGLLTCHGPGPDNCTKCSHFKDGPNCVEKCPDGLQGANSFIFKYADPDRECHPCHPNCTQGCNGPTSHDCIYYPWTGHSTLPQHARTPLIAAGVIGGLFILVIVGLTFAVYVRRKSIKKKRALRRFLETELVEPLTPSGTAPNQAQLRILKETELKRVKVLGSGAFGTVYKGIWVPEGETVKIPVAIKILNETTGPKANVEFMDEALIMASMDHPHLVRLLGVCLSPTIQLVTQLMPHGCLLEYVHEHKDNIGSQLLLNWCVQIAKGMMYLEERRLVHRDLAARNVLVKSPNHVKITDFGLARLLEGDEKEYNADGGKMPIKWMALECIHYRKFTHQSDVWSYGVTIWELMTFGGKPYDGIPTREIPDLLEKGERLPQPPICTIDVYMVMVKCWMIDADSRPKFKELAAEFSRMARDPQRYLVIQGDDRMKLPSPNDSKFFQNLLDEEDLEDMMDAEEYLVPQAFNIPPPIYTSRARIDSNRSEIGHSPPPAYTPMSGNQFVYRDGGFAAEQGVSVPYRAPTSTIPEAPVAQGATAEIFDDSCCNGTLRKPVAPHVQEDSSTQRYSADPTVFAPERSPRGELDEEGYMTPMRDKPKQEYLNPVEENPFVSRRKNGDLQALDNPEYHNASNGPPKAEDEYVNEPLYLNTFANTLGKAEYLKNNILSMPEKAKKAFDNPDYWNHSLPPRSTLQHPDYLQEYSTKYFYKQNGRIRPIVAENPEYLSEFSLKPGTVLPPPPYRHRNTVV
Description: Inhibition of HER4 (unknown origin) at 500 nM relative to control
Series [4] has as its system BaF3. The series is described as follows: Antiproliferative activity against mouse BAF3 cells harboring FL-EGFR D770-N771 ins NPG mutant after 72 hrs by celltiter-Glo luminescence assay. Conditions: BaF3, 72 h. It counts as functional, cell-based. Background: Cellular ATP, detected with luciferase, serves as a proxy for viable cell number.
Series [5] in a line: Half life in Sprague-Dawley rat at 10 mg/kg, po measured upto 8 hrs by LC-MS/MS analysis. In kind it is ADME, organism-based. The note with it: in vivo.
Series [6] in a line: Tmax in Sprague-Dawley rat at 10 mg/kg, iv measured upto 8 hrs by LC-MS/MS analysis. It counts as ADME, organism-based. The note with it: in vivo.
A short description of series [7]: Toxicity in BALB/c mouse harboring EGFR D770-N771 ins NPG mutant implanted with mouse BaF3 cells assessed as change in body weight at 10 to 20 mg/kg, po administered once daily for 13 to 14 days. It counts as organism-based. Conditions: in vivo, dose lower 10 mg/kg, time lower 13 day, dose upper 20 mg/kg, time upper 14 day.
Series [8] relates to BaF3. In words: Antiproliferative activity against mouse BAF3 cells harboring FL-EGFR A763-Y764 ins FQEA mutant after 72 hrs by celltiter-Glo luminescence assay. The note with it: BaF3, 72 h. In kind it is functional, cell-based.
In series [9] the target is T2, Ephrin type-A receptor 6 (Homo sapiens) (UniProt Q9UF33).
T2 sequence (whole entry): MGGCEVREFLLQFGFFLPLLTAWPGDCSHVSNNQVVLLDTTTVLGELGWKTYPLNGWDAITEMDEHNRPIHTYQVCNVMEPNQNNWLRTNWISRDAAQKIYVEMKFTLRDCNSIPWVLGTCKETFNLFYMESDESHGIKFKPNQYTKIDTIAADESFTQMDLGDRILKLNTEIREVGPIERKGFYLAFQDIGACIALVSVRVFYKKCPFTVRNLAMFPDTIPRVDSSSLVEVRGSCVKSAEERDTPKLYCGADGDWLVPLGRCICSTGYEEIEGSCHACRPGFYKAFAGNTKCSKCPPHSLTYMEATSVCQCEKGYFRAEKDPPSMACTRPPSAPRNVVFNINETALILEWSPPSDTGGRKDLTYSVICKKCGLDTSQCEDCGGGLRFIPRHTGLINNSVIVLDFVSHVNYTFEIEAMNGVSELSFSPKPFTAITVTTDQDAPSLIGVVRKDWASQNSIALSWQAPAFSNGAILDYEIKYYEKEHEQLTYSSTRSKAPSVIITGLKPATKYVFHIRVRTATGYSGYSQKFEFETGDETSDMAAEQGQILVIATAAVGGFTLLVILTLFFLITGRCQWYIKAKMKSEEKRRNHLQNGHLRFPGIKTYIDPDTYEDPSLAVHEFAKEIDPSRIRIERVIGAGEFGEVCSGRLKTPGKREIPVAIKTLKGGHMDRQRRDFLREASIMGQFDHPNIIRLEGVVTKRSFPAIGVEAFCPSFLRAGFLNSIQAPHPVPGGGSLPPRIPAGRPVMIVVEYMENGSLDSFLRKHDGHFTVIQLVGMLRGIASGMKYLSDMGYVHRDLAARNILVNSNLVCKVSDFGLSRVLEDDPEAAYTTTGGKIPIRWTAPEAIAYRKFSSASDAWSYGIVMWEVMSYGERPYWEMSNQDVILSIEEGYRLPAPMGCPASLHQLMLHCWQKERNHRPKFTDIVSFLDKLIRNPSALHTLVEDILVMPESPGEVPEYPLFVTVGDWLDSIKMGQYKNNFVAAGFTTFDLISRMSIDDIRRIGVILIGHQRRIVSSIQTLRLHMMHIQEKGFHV
The series is described as follows: Inhibition of EPHA6 (unknown origin) at 500 nM relative to control.

Series [10] is described as follows: Oral bioavailability in Sprague-Dawley rat at 10 mg/kg measured upto 8 hrs by LC-MS/MS analysis. It counts as ADME, organism-based. Conditions: in vivo.
Series [11] can be described thus: Inhibition of EGFR L858R/T790M double mutant (unknown origin). Also noted: species or system Homo sapiens.
Series [12] is described as follows: Inhibition of HER2-A775-G776 ins YVMA mutant (unknown origin). Also noted: species or system Homo sapiens.
Series [13] is described as follows: AUC(0 to t) in Sprague-Dawley rat at 10 mg/kg, po measured upto 8 hrs by LC-MS/MS analysis. In kind it is ADME, organism-based. Also noted: dose 10 mg/kg, time < 8 hrs, route po. Conditions: in vivo.
The test system of series [14] is BaF3. In words: Inhibition of EGFR D770-N771 ins NPG mutant in mouse BaF3 cells assessed as reduction in EGFR phosphorylation incubated for 24 hrs by Western blot analysis. It counts as cell-based. Conditions: dose 1-100 nM.
A short description of series [15]: Mean residence time in Sprague-Dawley rat at 10 mg/kg, po measured upto 8 hrs by LC-MS/MS analysis. It counts as ADME, organism-based. Conditions: in vivo.

Structures are written as SMILES.

What is called inhibition is how much of the control response was suppressed. For orientation: IC50 means the point on the concentration scale where inhibition reaches its midpoint. High values mean weaker potency in that assay, low ones greater potency in that assay. By half-life is commonly meant the time needed for the level to fall by half in the phase considered. Usually Tmax stands for the time from dosing to the highest level. The bioavailability is the share of a dose that reaches the circulation, judged against a reference dose that is usually intravenous. The term AUC(0-t) denotes the area under the concentration-time curve up to a stated or last time point. The MRT is a mean duration of stay, worked out from the concentration-time curve. Consider `C=CC(=O)N1CCC(Oc2cc3c(Nc4cccc(Cl)c4F)ncnc3cc2O[C@H]2CCOC2)CC1`, for which the inhibition in vivo at 20 mg/kg in the series with BaF3 [1] was determined as 83%. The inhibition in series [2] is above 20%; in series [3], 100%; in series [9], above 20%; with BaF3 [14] it was “Dose-Dependent Effect”. Further, the IC50 in the series on BaF3 [4] is 0.79 nM; in the series on BaF3 [8], 0.29 nM; in series [11] it was 1.07 nM; in [12], 0.92 nM. In [5], this compound showed a half-life of 416 min. In addition, the Tmax in [6] was 4.98 min. In addition, the Activity entry in series [7] is reported as “Non-Toxic”. In addition, the bioavailability in series [10] was 68%. This compound also came in with an AUC(0-t) at 8 h in [13] of 9500 ng·h/mL. For the same compound, in [15], the MRT turned out to be 3.58 h.
